Reference: EP0046349A1, “Clavulanic acid derivatives, their preparation and use” (BEECHAM GROUP PLC, priority 1980, dated 1982)

What was measured:
Type in all cases: cell-based
[1] = tested on: Staph. aureus Russell; assay: standard MIC synergy test
Excerpt: (§1) […]

[2] = tested on: Staph. aureus Russell; assay: standard antibacterial test; parameters: unit not given here; settings: compound alone
Excerpt: IN A STANDARD ANTIBACTERIAL TEST, THE FOLLOWING DATA WERE OBTAINED

[3] = tested on: Escherichia coli JT39; assay: standard MIC synergy test
Excerpt: as §1

[4] = tested on: Klebsiella Aerogenes E70; assay: standard MIC synergy test; settings: Amoxycillin alone, no inhibitor (comparison); unit assumed
Excerpt: as §1

[5] = Concentration of inhibitor 5.0 μg/ml, MIC of amoxycillin in presence of inhibitor, 'Inhibited' = inhibitor alone inhibits growth
[6] = Concentration of inhibitor 5.0 μg/ml, MIC of amoxycillin in presence of inhibitor
[7] = Concentration of inhibitor 1.0 μg/ml, MIC of amoxycillin in presence of inhibitor, 'Inhibited' = inhibitor alone inhibits growth
[8] = Amoxycillin alone, no inhibitor (comparison), unit assumed

Row | SMILES | MIC synergy test, Staph. aureus Russell [1, 5] | standard antibacterial test, Staph. Aureus Russell [2] | other results
1 | CCNC(C)=NC/C=C1\O[C@@H]2CC(=O)N2[C@H]1C(=O)O [Example 25] | Inhibited | 4.0 | 
2 | CSCC(N)=NC/C=C1\O[C@@H]2CC(=O)N2[C@H]1C(=O)O [Example 28, 9-N-(1'-amino-2'-methylthioethylidene) amino-9-deoxyclavulanic acid.] |  | 2.0 | 
3 | CCCC(N)=NC/C=C1\O[C@@H]2CC(=O)N2[C@H]1C(=O)O [Example 12, 9-N-(1-aminobutylidene)amino-9-deoxyclavulanic acid] | Inhibited | 4.0 | 
4 | NC(=NC/C=C1\O[C@@H]2CC(=O)N2[C@H]1C(=O)O)c1ccccc1 [Example 7, 9 N-(1-aminobenzylidene)amino-9-deoxyclavulanic acid] | Inhibited | 8.0 | 
5 | COCCC(N)=NC/C=C1\O[C@@H]2CC(=O)N2[C@H]1C(=O)O [Example 13, 9-N-(1'-amino-3'-methoxypropylidene)amino-9-deoxyclavulanic acid] |  | 16.0 | 
6 | CC(=NC/C=C1\O[C@@H]2CC(=O)N2[C@H]1C(=O)O)N(C)C [Example 22, 9-N-[1-(N,N-dimethyl)aminoethylidene] amino-9-deoxyclavulanic acid.] | Inhibited | ≤0.5 | MIC synergy test, Escherichia coli JT39 [3, 6]: Inhibited; MIC synergy test, Staph. aureus Russell [1, 7]: Inhibited
7 | CCCCC(N)=NC/C=C1\O[C@@H]2CC(=O)N2[C@H]1C(=O)O [Example 18, 9-N-(l-aminopentylidene) amino-9-deoxyclavulanic acid.] | Inhibited | 2.0 | 
8 | CC(=NC/C=C1\O[C@@H]2CC(=O)N2[C@H]1C(=O)O)NCc1ccccc1 [Example 4, 9-N-[1-(N-benzyl)aminoethylidene]amino-9-deoxyclavulanic acid] | Inhibited | 2.0 | 
9 | NC(=NC/C=C1\O[C@@H]2CC(=O)N2[C@H]1C(=O)O)C1CCC1 [Example 20, 9-N-(amino-cyclobutylmethylene) amino-9-deoxyclavulanic acid.] | Inhibited | 4.0 | MIC synergy test, Escherichia coli JT39 [3, 6]: Inhibited
10 | O=C(O)[C@H]1/C(=C/CN=CN2CCCCCC2)O[C@@H]2CC(=O)N21 [Example 27, 9-N-(N,N-hexamethyleneaminomethylene) aimno-9-deoxyclavulanic acid.] | Inhibited | 1.0 | MIC synergy test, Staph. aureus Russell [1, 7]: Inhibited
11 | CCN(C=NC/C=C1\O[C@@H]2CC(=O)N2[C@H]1C(=O)O)CC [Example 21, 9-N-(diethylaminomethylene) amino-9-deoxyclavulanic acid.] | Inhibited | 4.0 | 
12 | O=C(O)[C@H]1/C(=C/CN=CNCc2ccccc2)O[C@@H]2CC(=O)N21 [Example 6, 9-N-(N-benzylaminomethylene)amino-9-deoxyclavulanic acid] | Inhibited | 2.0 | MIC synergy test, Staph. aureus Russell [1, 7]: Inhibited
13 | CC(C)C(N)=NC/C=C1\O[C@@H]2CC(=O)N2[C@H]1C(=O)O [Example 16, 9-N-(1 t-amino-2'-methylpropylidene) amino-9-deoxyclavulanic acid.] | Inhibited | 4.0 | 
14 | CNC(C)=NC/C=C1\O[C@@H]2CC(=O)N2[C@H]1C(=O)O [Example 24, 9-N-[l-(N-methyl)aminoethylidene] amino-9-deoxyclavulanic acid.] | Inhibited | 8.0 | 
15 | CC(N)=NC/C=C1\O[C@@H]2CC(=O)N2[C@H]1C(=O)O [Example 2, 9-N-(1'-aminoethylidene)amino-9-deoxyclavulanic acid] | Inhibited | 16.0 | 
16 | CNC(=NC/C=C1\O[C@@H]2CC(=O)N2[C@H]1C(=O)O)c1ccccc1 [Example 23] | Inhibited | 2.0 | MIC synergy test, Staph. aureus Russell [1, 7]: Inhibited
17 | CC1(C)S[C@@H]2[C@H](NC(=O)[C@H](N)c3ccc(O)cc3)C(=O)N2[C@H]1C(=O)O [Amoxy-cillin, amoxycillin, reference compound] |  |  | MIC synergy test, Escherichia coli JT39 [3, 8]: 2000 µg/mL; MIC synergy test, Klebsiella Aerogenes E70 [4]: 1000 µg/mL; MIC synergy test, Staph. aureus Russell [1, 8]: 500 µg/mL
18 | CNC=NC/C=C1\O[C@@H]2CC(=O)N2[C@H]1C(=O)O [Example 11, 9-N-(N-methylaminomethylene)amino-9-deoxyclavulanic acid] | Inhibited | 4.0 | 
19 | NC(Cc1cccs1)=NC/C=C1\O[C@@H]2CC(=O)N2[C@H]1C(=O)O [Example 29, 9-N-(1-amino-2-[2'-thienyl]ethylidene) amino-9-deoxyclavulanic acid.] |  | 2.0 | 
20 | O=C(O)[C@H]1/C(=C/CN=C2CCCN2)O[C@@H]2CC(=O)N21 [Example 30, 9-N-(2-pyrrolidylidene) amino-9-deoxyclavulanic acid.] | Inhibited | 1.0 | MIC synergy test, Staph. aureus Russell [1, 7]: Inhibited
21 | NC=NC/C=C1\O[C@@H]2CC(=O)N2[C@H]1C(=O)O [Example 5, 9-N-(aminomethylene)amino-9-deoxyclavulanic acid] | Inhibited | 4.0 | 
22 | CC(=NC/C=C1\O[C@@H]2CC(=O)N2[C@H]1C(=O)O)NCC(=O)O [Example 10, Potassium 9-N-[1-(N-Carboxylatomethyl)aminoethylidene]amino-9-deoxyclavulanic acid] |  | 62.5 | 
23 | CC(=NC/C=C1\O[C@@H]2CC(=O)N2[C@H]1C(=O)O)NCC(C)C [Example 3, 9-N-[1'-(N-isobutyl)aminoethylidene]amino-9-deoxyclavulanic acid] | Inhibited | 4.0 | 
24 | O=C(O)[C@H]1/C(=C/CN=CN2CCCCC2)O[C@@H]2CC(=O)N21 [Example 26, 9-N-(N,N-pentamethyleneaminomethylene) amino-9-deoxyolavulanic acid.] | Inhibited | ≤0.5 | MIC synergy test, Staph. aureus Russell [1, 7]: Inhibited
25 | CCC(N)=NC/C=C1\O[C@@H]2CC(=O)N2[C@H]1C(=O)O [Example 14, 9-N-(1'aminopropylidene)amino-9-deoxyclavulanic acid] | Inhibited | 4.0 | 
26 | CC(=NC/C=C1\O[C@@H]2CC(=O)N2[C@H]1C(=O)O)NCCCCCC(=O)O [Example 9, Lithium 9-N-[1-(N-5'Carboxylatopentyl)aminoethylidene]amino-9-deoxyclavlanic acid] |  | 62.5 | 
27 | NC(=NC/C=C1\O[C@@H]2CC(=O)N2[C@H]1C(=O)O)C1CC1 [Example 19, 9-N-(amino-cyclopropylmethylene) amino-9-deoxyclavulanic acid.] | Inhibited | 4.0 | MIC synergy test, Escherichia coli JT39 [3, 6]: Inhibited
28 | CC(=NC/C=C1\O[C@@H]2CC(=O)N2[C@H]1C(=O)O)NCCCCCC(=O)OCc1ccccc1 [Example 8, 9-N-[1(N-5-benzyloxycarbonylpentyl)aminoethylidene]amino-9-deoxyclavulanic acid] | Inhibited | 8.0 | 
29 | O=C(O)[C@H]1/C(=C/CN=C2CCCCN2)O[C@@H]2CC(=O)N21 [Example 31, 9-N-(2-piperidylidene) amino-9-deoxyclavulanic acid.] | Inhibited | 1.0 | MIC synergy test, Staph. aureus Russell [1, 7]: Inhibited
30 | CN(C)C=NC/C=C1\O[C@@H]2CC(=O)N2[C@H]1C(=O)O [Example 1, 9-N-(Dimethylaminomethylene) amino-9-deoxyclavulanic acid] | Inhibited | 4.0 | 
